Experimental data published in patent US12636331B2, “Composition for preventing or treating lung cancer, comprising a compound isolated from Cephalotaxus extract as an active ingredient” (priority 2020, dated 2026).

Experiments:
[1] = tested on: C. elegans jgIs25 (EGFR T790M-L858R); test: Multivulva (Muv) formation in C. elegans with EGFR double mutation; format: in vivo
Text: In non-small cell lung cancer patients with EGFR (epidermal growth factor receptor) exon21 mutation (L858R), the therapeutic effect of EGFR-TKI (tyrosine kinase inhibitor) is excellent. However, tolerance develops quickly, one mechanism of which is because the second mutation (L858R, T790M) occurs in EGFR. C. elegans with EGFR double mutation (L858R, T790M) causes cell proliferation (multivulva formation). It was observed whether cell proliferation could be inhibited upon IHT treatment. This is an in vivo system that can predict the therapeutic effect of lung cancer resistant to EGFR-TKIs, by introducing genetic mutations observed in cells showing drug resistance to the EGFR-TKI (tyrosine kinase inhibitor) used as a therapeutic agent for human lung cancer.
After IHT treatment to C. elegans jgIs25, observations were performed using a differential interference contrast (DIC) microscope. 0.5% DMSO was used as a vehicle control. […] 0.1% DMSO as a control or 5 μM IHT was. Data are expressed as mean±standard error, **P<0.01 and ***P<0.001.

[2] = tested on: A549 tumorspheroids; test: 3D tumorspheroid growth (CellTiter-Glo 3D); format: cell-based
Description: (§1) A549 and NCI-H460 cell lines were placed in 96-well ultra-low attachment (ULA) plates at 7,000 and 1500 cells/well, and centrifuged at 1000 rpm for 10 minutes. Then, they were cultured in Roswell Park Memorial Institute (RPMI) 1640 medium mixed with 0.5% Matrigel, 10% Fetal Bovine Serum (FBS), and 1× penicillin-streptomycin for 2 days. They were treated with IHT, and the degree of cell growth was measured with CellTiter-Glo 3D (Promega, Madison, WI, USA) reagent after 72 hours, and 2D cultured cells were exposed to IHT at the indicated concentration for 48 hours, and then the cell growth was measured with CellTiter-Glo reagent. The average effective dose ED50 of IHT was determined by analyzing the dose-response curve with GraphPad Prism, and the results are shown in FIG. 2. The scale bar was 100 μm, and all data were expressed as mean±standard deviation.
(§2) After IHT was treated onto the 3D tumorspheroid of NCI-H460, or siNR4A1 and IHT were treated in combination on the 3D tumorspheroid of A549, the growth inhibition and cell death induction of tumorspheroids were observed. Negative control (siNC) or siNR4AT-transfected A549 and non-transfected NCI-H460 tumorspheroids were treated with IHT at each concentration, and after 48 and 72 hours, the cell growth was measured using CellTiter-Glo 3D cell viability assay kit (Promega). A549 cells were transfected with […] siRNA using Lipofectamine 2000 (Invitrogen), and siNR4A1 of SEQ ID NO: 1 (5′-GAGCUAUUCCAUGCCUACG-3′) and SEQ ID NO: 2 (5′-GGAUACUGGAUACACCCGU-3′) were mixed and used.

[3] = tested on: NCI-H460 tumorspheroids; test: 3D tumorspheroid growth (CellTiter-Glo 3D); format: cell-based
Description: as §1, §2

[4] = tested on: A549 tumorspheroids; test: Combined treatment of cisplatin and IHT, tumorspheroid cell growth; format: cell-based
Description: A549 tumorspheroids were grown for 3 days, then subjected to the combined treatment of cisplatin and IHT at the indicated concentrations.

[5] = tested on: NCI-H460 tumorspheroids; test: LIVE/DEAD cell death staining of tumorspheroids; format: cell-based; settings: NCI-H460 tumorspheroids, 1,3,5 uM IHT, 72 hours
Description: (§3) After the IHT was treated with NCI-H460 and A549 tumorspheroids for 72 hours, the cell death was observed using LIVE/DEAD Viability/Cytotoxicity Kit (Thermo Scientific). Live cells were stained with green fluorescence-labeled calcein-AM, dead cells were stained with red fluorescence-labeled ethidium homodimer-1 (EthD-1), and images were taken at 100× magnification using the Operetta High Content Screening (HCS) System.

[6] = tested on: A549 tumorspheroids; test: Annexin V / 7-AAD flow cytometry; format: cell-based; settings: 72 hours
Description: (§4) An experiment was designed to confirm whether cell death induced in 3D tumorspheroids was apoptosis. Induction of apoptosis was examined after treating NCI-H460 tumorspheroids with IHT or treating A549 tumorspheroids with IHT along with siNC or siNR4A1. NCI-H460 and siRNA-treated A549 tumorspheroids were treated with IHT at the indicated concentrations for 72 hours, and then apoptosis was measured using a Cell Death detection ELISA kit. Further, after IHT treatment for 72 hours, single cells were isolated from tumorspheroids, stained with Annexin V and 7-AAD, and analyzed by a flow cytometry. Apoptotic cell population was represented as the ratio of cells in the early apoptotic processes that are annexin V-positive/7-AAD-negative, and terminal apoptotic process positive for both annexin V/7-AAD (FIG. 5). All data are expressed as mean±standard deviation. *p<0.05 indicates a significant difference compared to a control group, and **p<0.01 indicates a significant difference compared to a control group.
Further, using the phenomenon that annexin V was exposed to the outside of the cell membrane in the early stage of apoptosis, cells were stained with annexin V, stained with 7-Amino-Actinomycin D (7-AAD) penetrating into dead cells, and analyzed with a flow cytometry, thus showing apoptosis and cell death.

[7] = tested on: A549 tumorspheroids; test: LIVE/DEAD cell death staining of tumorspheroids; format: cell-based; settings: 72 hours
Description: as §2, §3

[8] = tested on: NCI-H460 cell line; test: 2D culture cell growth (CellTiter-Glo); format: cell-based; settings: Homo sapiens; 2D culture NCI-H460, 48 hours; read-out: ED50, cell proliferation
Description: as §1

[9] = tested on: A549 cell line; test: 2D culture cell growth (CellTiter-Glo); format: cell-based; settings: Homo sapiens; 2D culture A549, 48 hours; read-out: ED50, cell proliferation
Description: as §1

[10] = tested on: A549 tumorspheroids; test: Mitochondrial membrane potential (JC-1, flow cytometry); format: cell-based; settings: IHT 1 uM and siNR4A1 simultaneously, 48 hours
Description: (§5) In the induction of apoptosis by the intrinsic pathway, a decisive process is the release of cytochrome C inside mitochondria to the outside due to changes in mitochondrial membrane potential. After 48 hours of treatment to measure mitochondrial membrane potential changes, tumorspheroids were isolated into single cells and stained with JC-1, and flow cytometry was used to measure the percentage of mitochondria-damaged cells. The percentage of cells in which JC-lexists as a single entity, meaning a decrease in mitochondrial membrane potential, was indicated. In addition, A549 tumorspheroids transfected with negative control (siNC) or siNR4A1 and NCI-H460 tumorspheroids were treated with IHT for 48 hours, and then subjected to Western blot analysis for apoptosis-related protein changes, and the results are shown in FIG. 6.

[11] = tested on: NCI-H460 tumorspheroids; test: as above; format: cell-based; settings: 3 uM IHT, 48 hours
Description: as §5

[12] = tested on: A549 tumorspheroids; test: Western blot of apoptosis-related proteins; format: cell-based
Description: (§6) The cells were dissolved in a RIPA (radio immunoprecipitation) buffer containing protease inhibitors, phosphatase inhibitors, PMSF (phenylmethylsulfonyl fluoride), and DTT (dithiothreitol), and protein concentration was quantified with a micro BCA test kit. Equal amounts of protein was added to a polyacrylamide gel containing SDS (Sodium dodecyl sulphate), isolated by electrophoresis, and transferred to a polyvinylidene difluoride (PVDF) membrane. The membrane was blocked with a solution containing 5%-TBST (tris-buffered saline with Tween20) milk, and the primary antibody was exposed at 4 degrees Celsius for 16 hours.
(§7) The antibodies used were as follows: β-actin (sc-477778), p53 (sc-126), Bax (sc-526) (Santacruz Biotechnology); cleaved caspase-7 (Asp198) (#9491), cleaved poly (ADP-ribose) polymerase (PARP) (#9541), X chromosome-linked inhibitor of apoptosis (XIAP) (#2045), Survivin (#2808), p21 (#2947), phospho-Akt (#9275), cleaved caspase-9 (#9501), caspase-9 (#9502), caspas-8 (#9746), phospho-Stat3 (#9145) (Cell Signaling Technology).
(§8) Subsequently, the membrane was washed with TBSP, and then exposed to the secondary antibody conjugated with HRP (horseradish peroxidase, Santacruz Biotechnology) at room temperature for 1 hour, washed, and film-developed using an ECL (enhanced chemiluminescence, Amersham) kit to observe the bands.
as §5

[13] = tested on: NCI-H460 tumorspheroids; test: Western blot of apoptosis-related proteins; format: cell-based
Description: as §6, §7, §8, §5

[14] = tested on: A549 xenograft tumors; test: A549 xenograft tumor growth; format: in vivo; settings: athymic nude mice, intratumoral IHT 20 μg/kg (500 ng) twice a week with siNR4A1 once a week, 4 weeks
Description: Further, A549 cells (5×10^6) were inoculated into the dorsal side of athymic nude mice, and when the tumor size reached 100-150 mm^3, siRNA (50 pmoles) and IHT (500 ng) were intratumorally administered once a week and twice a week, respectively, for 4 weeks. The tumor size was monitored twice a week, and tumor volume was calculated by the following Equation 3. […] V(mm^3)=length×width×width/2 [Equation 3]

[15] = tested on: A549 tumorspheroids; test: Apoptosis by Cell Death detection ELISA kit; format: cell-based; settings: 72 hours
Description: as §4

[16] = tested on: NCI-H460 tumorspheroids; test: Apoptosis by Cell Death detection ELISA kit; format: cell-based; settings: 72 hours
Description: as §4

[17] = tested on: p21 protein; test: Western blot for p21 protein in 2D-cultured NCI-H460; format: cell-based; settings: NCI-H460 2D, 48 hours, low concentrations below the ED50
Description: NCI-H460 cell line was cultured in 2D, treated with IHT at the indicated concentration for 48 hours, and then Western blots were performed to measure changes in p21 protein.
as §6
as §7, with “Technology). […]” for “Technology).”

[18] = A549 tumorspheroids with inhibition of NR4A1 expression (siNR4A1), IHT 1 uM

## COC(=O)[C@@H](O)[C@](O)(CCC(C)C)C(=O)O[C@@H]1C(OC)=C[C@]23CCCN2CCc2cc4c(cc2C13)OCO4 (stereo partly shown) [IHT, isoharringtonine]
[1]; C. elegans jgIs25, high concentrations of IHT
  multivulva formation: multivulva formation was significantly inhibited
[1]; C. elegans jgIs25, low IHT concentration (5 μM) with sinhr-6 (nhr-6 RNAi)
  multivulva formation: multivulva formation was significantly inhibited
[1]; C. elegans jgIs25, low concentration (5 uM) IHT
  multivulva formation: multivulva formation was not inhibited
[2]; [18]
  growth inhibition of tumorspheroids: rapid growth-inhibitory effect
[2]; A549 tumorspheroids, IHT alone (siNC), 48 and 72 hours
  growth inhibition of tumorspheroids: did not have a significant growth-inhibitory effect
[2]; Homo sapiens, A549 3D tumorspheroid, 72 hours, ED50 'predicted'
  EC50: 9600 ± 1120 nM
[3]; Homo sapiens, 3D tumorspheroid of NCI-H460, 72 hours, read-out: average effective amount (ED50), tumorspheroid growth
  EC50: 143 ± 40 nM
[3]; NCI-H460 tumorspheroids, 1,3,5 uM IHT, 48 and 72 hours
  growth inhibition of tumorspheroids: effectively induced at all concentrations
[4]; A549 tumorspheroids, 10 μM IHT in combination with 10 μM cisplatin, 3 days
  cell growth inhibition: stronger inhibition of cell growth
[4]; A549 tumorspheroids, 10 μM IHT, 3 days
  cell growth inhibition: very effectively inhibited
[4]; Homo sapiens, A549, 72 h, read-out: cell growth inhibition
  inhibition at 1 µM: ~48%
[5]
  cell death of tumorspheroids: effectively induced at all concentrations
[6]; IHT alone
  apoptosis (annexin V/7-AAD): did not induce apoptosis
[6]; simultaneous treatment with siNR4A1, IHT 1 μM
  apoptosis (annexin V/7-AAD): sharply increased apoptosis
[7]; [18]
  cell death of tumorspheroids: sharply induced cell death
[7]; A549 tumorspheroids, IHT alone
  cell death of tumorspheroids: did not induce cell death
[8]
  EC50: 94 ± 20 nM
[9]
  EC50: 481 ± 50 nM
[10]
  mitochondrial membrane potential: induced a decrease in mitochondrial membrane potential
[11]
  mitochondrial membrane potential: changes in mitochondrial membrane potential were induced
[12]; IHT+siNR4A1, 48 hours
  cleavage of caspase-9: induced the cleavage of caspoase-9
[12]; both IHT and siNR4A1, 48 hours
  Mcl-1 and XIAP protein: induced a reduction of Mcl-1 and XIAP
  phospho-Akt: reduction of phospho-Akt
[13]; 48 hours
  Bcl-2 and Mcl-1 protein: induces the reduction of Bcl-2 and Mcl-1
  Survivin and XIAP protein: induces the decrease of Survivin and XIAP
  p53 protein: induces an increase in p53
  phospho-Akt: reduction of phospho-Akt
[13]; IHT 48 hours
  cleavage of caspase-9: induced the cleavage of caspoase-9
[14]
  xenograft tumor suppression (tumor volume): tumor suppressive effects were observed
[15]; IHT alone
  apoptosis (DNA fragments, ELISA): apoptosis was not induced
[15]; simultaneous treatment with siNR4A1, IHT 1 uM
  apoptosis (DNA fragments, ELISA): sharply increased apoptosis
[16]
  apoptosis (DNA fragments, ELISA): increased from 1 uM in a dose-dependent manner
[17]
  change in p21 protein: increased p21

## N.N.[Cl][Pt][Cl] [cisplatin, reference compound]
[4]; A549 tumorspheroids, 30 μM cisplatin alone, 3 days
  inhibition of tumorspheroid growth: significant but minute inhibition of growth
